Columns and labels:
androgen receptor (AR) = biological target: T1, androgen receptor (AR) (Homo sapiens, UniProt P10275, T878A); test: Androgen-induced PSA (6.1 kb)-luciferase reporter assay in LNCaP cells; assay type: cell-based; settings: LNCaP cells transfected with PSA (6.1 kb)-luciferase reporter, R1881 1 nM, 24 h; read-out: PSA-Luc IC50 Range
T1 construct: LNCaP cells were transiently transfected with the PSA (6.1 kb)-luciferase reporter for 24 h; endogenous in cells; host or cells: LNCaP
T1 sequence (P10275 1-920 T878A): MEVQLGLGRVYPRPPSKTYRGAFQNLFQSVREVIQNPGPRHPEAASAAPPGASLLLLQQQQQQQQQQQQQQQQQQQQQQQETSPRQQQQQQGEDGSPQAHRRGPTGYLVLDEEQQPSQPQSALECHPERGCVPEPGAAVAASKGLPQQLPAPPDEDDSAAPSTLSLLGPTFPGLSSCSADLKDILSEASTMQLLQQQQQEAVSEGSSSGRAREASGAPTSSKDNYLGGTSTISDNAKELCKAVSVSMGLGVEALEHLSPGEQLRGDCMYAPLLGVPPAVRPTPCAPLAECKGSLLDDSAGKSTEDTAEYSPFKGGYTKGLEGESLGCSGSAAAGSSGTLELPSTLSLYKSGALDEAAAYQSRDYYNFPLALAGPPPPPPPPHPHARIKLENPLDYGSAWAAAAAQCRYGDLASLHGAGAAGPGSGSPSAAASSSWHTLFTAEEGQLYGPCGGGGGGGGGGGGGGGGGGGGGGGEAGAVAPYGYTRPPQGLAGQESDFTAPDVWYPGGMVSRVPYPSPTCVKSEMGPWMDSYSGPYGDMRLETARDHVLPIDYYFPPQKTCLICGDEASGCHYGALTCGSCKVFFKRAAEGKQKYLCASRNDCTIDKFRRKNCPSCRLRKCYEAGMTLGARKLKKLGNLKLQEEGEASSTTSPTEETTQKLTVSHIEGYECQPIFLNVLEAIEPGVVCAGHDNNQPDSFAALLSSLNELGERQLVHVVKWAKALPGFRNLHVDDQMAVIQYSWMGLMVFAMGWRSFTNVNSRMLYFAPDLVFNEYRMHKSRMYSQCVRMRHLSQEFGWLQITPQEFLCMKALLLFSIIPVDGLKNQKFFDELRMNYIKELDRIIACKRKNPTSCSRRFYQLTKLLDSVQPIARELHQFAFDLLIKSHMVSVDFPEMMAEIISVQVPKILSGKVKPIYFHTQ
Description: The PSA (6.1 kb)-luciferase reporter contains functional AREs (androgen response elements) to which AR binds in response to androgen to induce luciferase activity.
Cells were lysed using Passive Lysis Buffer (Promega) and then collected into V-bottom 96-well tissue culture plates. Lysates were centrifuged at 4° C. for 5 minutes at 3000 rpm. To measure luminescence of LNCaP cell lysates the Firefly Luciferase Assay System (Promega) was employed, according to manufacturer's protocol. Relative luminescence units (RLU) in cell lysates were detected for 10 seconds using Promega GloMax-Multi Detection Luminometer (Promega). Values were normalized to protein content. GraphPad Prism graphing software was used to calculate IC50 values.
Comparisons between treatment and control groups were compared using Two-Way ANOVA with post-hoc Dunnett's and Tukey's tests. Differences were considered statistically significant at P values less than 0.05.

[1] = Microsomal stability assay, mouse liver microsomes; assay type: in vitro ADME; settings: mouse, liver microsomes, pH 7.4, mouse liver microsomes, 1 μM compound, 0.5 mg/mL protein, 37° C.; read-out: MLM +30/− NADPH: Clint (μL/min/mg protein)
Description: (§1) Microsomal stability assay is a widely used in vitro model to characterize the metabolic conversion by phase I enzymes, such as cytochrome P450 (CYP) enzymes. Since metabolism is known to be highly variable in different species, microsomal stability assay is commonly run in multiple species. Metabolic stability of testing compound can be evaluated using human, rat, mouse, or other animal liver or intestine microsomes to predict intrinsic clearance.
(§2) The assay was carried out in 96-well microtiter plates at 37° C. Reaction mixtures (25 μL) contained a final concentration of 1 μM test compound, 0.5 mg/mL liver microsomes protein, and 1 mM NADPH and/or 1 mM UDPGA (with alamethicin) in 100 mM potassium phosphate, pH 7.4 buffer with 3 mM MgCl2. The incubation was done with N=1, but duplicate incubation at each time point can be prepared if necessary. At each of the time points (for example, 0, 15, 30, and 60 minutes), 150 μL of quench solution (100% acetonitrile with 0.1% formic acid) with internal standard was transferred to each well. Besides the zero minute controls, mixtures containing the same components except the NADPH can also be prepared as the negative control. Verapamil was included as a positive control to verify assay performance. Plates were sealed, vortexed, and centrifuged at 4° C. for 15 minutes at 4000 rpm. The supernatant is transferred to fresh plates for LC/MS/MS analysis.
(§3) Summarized conditions: [Compound]=[…], [LM]=0.5 mg/mL, [NADPH]=1 mM and/or [UDPGA]=1 mM, Buffer=100 mM Potassium Phosphate, pH 7.4 with 3 mM MgCl2, Time=0, 15, 30, and 60 min, and Temperature=37° C.
(§4) All samples were analyzed on LC/MS/MS using an AB Sciex API 4000 instrument, coupled to a Shimadzu LC-20AD LC Pump system. Analytical samples were separated using a Waters Atlantis T3 dC18 reverse phase HPLC column (20 mm×2.1 mm) at a flow rate of 0.5 mL/min. The mobile phase consisted of 0.1% formic acid in water (solvent A) and 0.1% formic acid in 100% acetonitrile (solvent B).
(§5) The extent of metabolism is calculated as the disappearance of the test compound, compared to the 0-min time incubation. Initial rates are calculated for the compound concentration and used to determine half-life (t½) values and subsequently, the intrinsic clearance (Clint). Clint=(0.693)(1/t½ (min))(g of liver/kg of body weight)(mL incubation/mg of microsomal protein)(45 mg of microsomal protein/g of liver weight)

[2] = Microsomal stability assay, human liver microsomes; assay type: in vitro ADME; settings: pH 7.4, 1 μM compound, 0.5 mg/mL protein, 37° C., read-out: HLM +/− NADPH: Clint (μL/min/mg protein)
Description: as §1, §2, §3, §4, §5

[3] = Hepatocyte stability assay, mouse hepatocytes; assay type: in vitro ADME; settings: mouse, cryopreserved hepatocytes, 1 μM compound, 0.5 million cells/mL, 37° C., read-out: MH +/− NADPH: Clint (μL/min/million cells)
Text: The […] of in vitro intrinsic clearance (Clint) for drug candidates in the early discovery stage is common practice in the pharmaceutical industry. The Clint values of drug candidates can help to confirm whether metabolism is the main clearance pathway when it is compared with the total body clearance in vivo. Hepatocytes are among the routinely used in vitro systems for measuring clearance. Hepatocytes have been reported to retain most of the phase I and phase II metabolic activities, and therefore, it is a useful tool to estimate the intrinsic clearance for potential drug candidates.
Metabolic stability of testing compound were be evaluated using human and mouse hepatocytes and can also be use rat, mouse, or other animal hepatocytes to predict intrinsic clearance. Cryopreserved hepatocytes were removed from the liquid nitrogen tank and thawed in a 37° C. water bath. As soon as the cells pulled away from the vial wall, they were decanted into 48 ml of warm HT medium. Cells were centrifuged for four minutes at 420 rpm (50 g). After removing the supernatant, pellet was re-suspended in warm DMEM medium. Cell density was counted by a hemacytometer.
The assay was carried out in 96-well microtiter plates. Compounds were incubated for 0, 60, 120, and 180 minutes at 37° C. with hepatocytes. Reaction mixtures (50 μL) contained a final concentration of 1 μM test compound, 0.5 million cells/mL hepatocytes in the DMEM medium. At each of the time points (for example, 0, 1, 2, and 3 hours), 200 μL of quench solution (100% acetonitrile with 0.1% formic acid) with internal standard was transferred to each well. Midazolam was included as a positive control to verify assay performance. Plates were sealed and centrifuged at 4° C. for 15 minutes at 4000 rpm. The supernatant is transferred to fresh plates for LC/MS/MS analysis.
Summarized conditions (customizable): [Compound]=[…], Positive control: midazolam and/or naloxone, [Hepatocyte]=0.5 million cells/Ml, time=0, 60, 120, and 180 min, t=37° C.
as §4
The extent of metabolism was calculated as the disappearance of the test compound, compared to the 0-min control reaction incubations. Initial rates were calculated for the compound concentration and used to determine t½ values and subsequently, the intrinsic clearance, Clint. Clint=(0.693)(1/t½(min))(mL incubation/million cells)

SMILES	IC50 (androgen receptor (AR))	microsomal CLint at 1 μM [1]	microsomal CLint at 1 μM [2]	hepatocyte CLint at 1 μM [3]
CC(Oc1ccc(C(C)(O)c2cc(Cl)c(OCCCl)c(C#N)c2)cc1)c1ocnc1S(C)(=O)=O (stereo not shown) [Compound A95]	> 2000 nM	≥ 48 µL/min/mg	12 to 48 µL/min/mg	≥ 18 µL/min/1e6 cells
CC(C)(c1ccc(OCC2COC(NS(C)(=O)=O)=N2)cc1)c1ccc(OCCCl)c(C#N)c1 (stereo not shown) [Compound A143]	> 2000 nM	< 12 µL/min/mg	< 12 µL/min/mg	< 4 µL/min/1e6 cells
CC(C)(c1ccc(OCc2nccc(NS(C)(=O)=O)n2)cc1)c1cc(Cl)c(OCCCl)c(C#N)c1 [Compound A184, N-(2-((4-(2-(3-chloro-4-(2-chloroethoxy)-5-cyanophenyl)propan-2-yl)phenoxy)methyl)pyrimidin-4-yl)methanesulfonamide]	> 2000 nM	< 12 µL/min/mg	< 12 µL/min/mg	< 4 µL/min/1e6 cells
CC(C)(c1ccc(OCc2cccc(NS(C)(=O)=O)n2)cc1)c1cc(Cl)c(OCCCl)c(C#N)c1 [Compound A194]	500 to 2000 nM	< 12 µL/min/mg	< 12 µL/min/mg	< 4 µL/min/1e6 cells
CC(C)(c1ccc(OCc2csc(S(C)(=O)=O)n2)cc1)c1cc(Cl)c(OCCCl)c(C#N)c1 [Compound A144]	–	12 to 48 µL/min/mg	12 to 48 µL/min/mg	≥ 18 µL/min/1e6 cells
CC(C)(c1ccc(C(=O)Nc2ccnc(N)n2)cc1)c1cc(Cl)c(OCCCl)c(Cl)c1 [Compound A146]	–	< 12 µL/min/mg	12 to 48 µL/min/mg	≥ 18 µL/min/1e6 cells
CC(C)(C)C(=O)N(c1ccc(OCc2coc(NS(C)(=O)=O)n2)cc1)c1cc(Cl)c(OCCCl)c(C#N)c1 [Compound A127]	–	12 to 48 µL/min/mg	12 to 48 µL/min/mg	4 to 18 µL/min/1e6 cells

The remaining lines, values ahead:

IC50 (androgen receptor (AR))	microsomal CLint at 1 μM [1]	microsomal CLint at 1 μM [2]	hepatocyte CLint at 1 μM [3]	SMILES
500 to 2000 nM	< 12 µL/min/mg	< 12 µL/min/mg	< 4 µL/min/1e6 cells	[2H]c1c([2H])c(C(C)(C)c2cc(Cl)c(OCCCl)c(C#N)c2)c([2H])c([2H])c1OCc1ccnc(NS(C)(=O)=O)n1 [Compound A201]
500 to 2000 nM	< 12 µL/min/mg	< 12 µL/min/mg	< 4 µL/min/1e6 cells	CC(C)(c1ccc(OCc2cnc(NS(C)(=O)=O)cn2)cc1)c1cc(Cl)c(OCCCl)c(C#N)c1 [Compound A197]
< 500 nM	12 to 48 µL/min/mg	12 to 48 µL/min/mg	≥ 18 µL/min/1e6 cells	CC(C)(c1ccc(OCc2cnc(CN)o2)cc1)c1cc(Cl)c(OCCCl)c(C#N)c1 [Compound A192]
< 500 nM	≥ 48 µL/min/mg	12 to 48 µL/min/mg	4 to 18 µL/min/1e6 cells	Cc1cc(C(C)(C)c2ccc(OC(C)c3scnc3S(C)(=O)=O)cc2)cc(C#N)c1OCCCl (stereo not shown) [Compound A70]
< 500 nM	12 to 48 µL/min/mg	< 12 µL/min/mg	≥ 18 µL/min/1e6 cells	Cc1oc(S(C)(=O)=O)nc1COc1ccc(C(C)(C)c2cc(Cl)c(OCCCl)c(C#N)c2)cc1 [Compound A80]
< 500 nM	≥ 48 µL/min/mg	< 12 µL/min/mg	≥ 18 µL/min/1e6 cells	CC(Oc1ccc(C(C)(C)c2cc(Cl)c(OCCCl)c(C#N)c2)cc1)c1coc(S(C)(=O)=O)n1 (stereo not shown) [Compound A85]
< 500 nM	< 12 µL/min/mg	< 12 µL/min/mg	< 4 µL/min/1e6 cells	CC(C)(c1ccc(OCc2cnc(NS(C)(=O)=O)nc2)cc1)c1cc(Cl)c(OCCCl)c(C#N)c1 [Compound A204]
< 500 nM	< 12 µL/min/mg	< 12 µL/min/mg	< 4 µL/min/1e6 cells	C[C@@H](Oc1ccc(C(C)(C)c2cc(Cl)c(OCCCl)c(C#N)c2)cc1)c1ccnc(NS(C)(=O)=O)n1 (single isomer, unassigned) [Compound A169]
< 500 nM	≥ 48 µL/min/mg	≥ 48 µL/min/mg	≥ 18 µL/min/1e6 cells	CC(=O)Nc1nc(COc2ccc(C(C)(C)c3cc(Cl)c(OCCCl)c(C#N)c3)cc2)co1 [Compound A140]
< 500 nM	≥ 48 µL/min/mg	≥ 48 µL/min/mg	–	CN1C(=O)N(Cc2ccc(C(C)(C)c3cc(Cl)c(OCCCl)c(Cl)c3)cc2)C(=O)C1(C)C [Compound B2, 3-(4-(2-(3,5-Dichloro-4-(2-chloroethoxy)phenyl)propan-2-yl)benzyl)-1,5,5-trimethylimidazolidine-2,4-dione]
